From US20230122219A1, “IRAK DEGRADERS AND USES THEREOF” (Kymera Therapeutics, Inc., priority 2020, published 2023) come the findings set out here.

Where only a bound is given, the exact number is not on record here.

The target of assay [1] is T1, IRAK4 (Homo sapiens, UniProt Q9NWZ3).
T1 sequence (Q9NWZ3 1-460): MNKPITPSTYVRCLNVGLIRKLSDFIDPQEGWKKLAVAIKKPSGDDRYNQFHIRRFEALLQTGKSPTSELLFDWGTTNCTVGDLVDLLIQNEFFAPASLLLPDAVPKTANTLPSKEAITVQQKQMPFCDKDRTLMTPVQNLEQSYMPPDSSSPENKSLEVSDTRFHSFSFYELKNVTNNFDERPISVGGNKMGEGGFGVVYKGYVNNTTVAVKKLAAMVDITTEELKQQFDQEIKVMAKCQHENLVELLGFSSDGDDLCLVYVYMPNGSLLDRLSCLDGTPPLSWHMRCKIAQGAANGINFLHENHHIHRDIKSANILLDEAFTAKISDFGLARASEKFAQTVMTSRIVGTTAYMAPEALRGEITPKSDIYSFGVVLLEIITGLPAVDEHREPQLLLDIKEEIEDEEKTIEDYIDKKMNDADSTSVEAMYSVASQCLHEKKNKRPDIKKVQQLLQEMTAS
Put plainly: IRAK4 MSD Degradation in OCI-LY10. Conditions: OCI-LY10 cells, 4 hrs, Meso Scale Discovery. Type of assay: cell-based. Further details: endogenous in cells; host or cells: OCI-LY10. On the procedure: Degradation of IRAK4 in OCI-LY10 was quantitatively measured using Meso Scale Discovery technology. OCI-LY10 cells were seeded in 96-well plates (Corning 3799) with a density of 300,000 cells per well in 100 μL fresh media. Compounds were then added to the assay plates with a final top concentration of 1 to 10 μM in a 1:3 dilution series with total of 8 doses. The assay plates were then incubated for 4 to 24 hours at 37° C. under 5% CO2. The assay plates were then centrifuged for 5 minutes and the cell pellets were treated with 100 μL/well RIPA lysis buffer (Boston BioProducts BP-115D) with proteinase inhibitors. To prepare MSD assay plates (Meso Scale Discovery Catalog number L15XA-3), the plates were coated with […] capture antibody (mouse Anti-IRAK4 antibody [2H9], ab119942) in PBS, at 40 μL/well. […] The assay plates were then incubated at room temperature for 1 hour, washed 3 times with 150 μL/well TBST buffer, and 150 μL/well MSD reading buffer (Meso Scale Discovery catalog number R92TC-2) was added. The plates were then analyzed by a MSD reader (Meso Scale Discovery, Model Quick Plex SQ 120). The data was then analyzed by software Prism 7.0 from GraphPad and the dose-depended IRAK4 degradation were fit using a three-parameter logistic equation to calculate DC50. […]

The target in assay [2] is T1, IRAK4. The experiment in a line: Human Whole Blood IRAK4 Degradation (whole blood monocyte, flow cytometry). The arrangement: Whole blood was collected in heparinized tubes and plated on the same day as draw (day 0); from tissue; host or cells: human whole blood (CD14-positive monocytes gated by flow cytometry). Conditions: human whole blood monocytes, read-out: IRAK4 degradation in whole blood: Average external Abs DC50. Type of assay: cell-based. On the procedure:
Whole blood was collected in heparinized tubes and plated on the same day as draw (day 0). Whole blood was aliquoted into deep well plates. Compound plates were prepared and a 10 point, 5-fold dilution was performed with a final DMSO concentration of 0.1%. Compound was added to whole blood deep well plate, sealed and incubated at 37° C., 5% C02 for 20 hours (for 4 hour treatment, compounds were prepared and added the following day). Following the treatment incubation period (day 1), BD lyse fix (BD#558049) was added to the whole blood plate, placed on plate shaker for 30 seconds and incubated for 10 mins at room temperature. Whole blood was then spun down and washed two times with PBS/0.5% BSA, aspirated to pellet and placed into −80° C. freezer until further processing for flow. On the flow run day, whole blood plates were thawed and samples were transferred to PCR plates. The pre-perm staining cocktail (CD3 Ax488/CD8 BUV805/CD14 BUV395/CD16/56 BV711/CD19 BV785) was added to samples and incubated for 30 minutes at room temperature. Samples were washed two times and permeabilized with Methanol for 10 minutes at 4° C. […] Twenty hour dose curves were calculated using a 4 parameter logistic regression curve fit, no constraints (Top doses were removed if hook effects were observed and the bottom was constrained to 0). […]

Broadly, the DC50 is the concentration giving 50% degradation. For `CN(C[C@H]1CC[C@H](n2cc(NC(=O)c3cnn4cccnc34)c(C(F)F)n2)CC1)C1CCN(c2cccc3c2n(C)c(=O)n3C2CCC(=O)NC2=O)CC1` (some centres unmarked) [I-1], the DC50 in assay [1] and in assay [2] was under 0.05 µM each time.
